# “Also recorded” adds a separate entry of the source.
# Tests used:
# [1] = Delivery of parent compound to liver after intraperitoneal 1.3 (Example U); type: in vivo, rat; conditions: 1.3 50 mg/kg i.p.
# Description: Methods: 1.3 was dissolved in DMSO and administered intraperitoneally to fasted rats at a dose of 50 mg/kg. At various time points following drug administration, animals were anesthetized with halothane. The peritoneal cavity was then opened and a blood sample was obtained from the abdominal vena cava and the liver freeze-clamped and excised. Blood and liver samples were processed as described in Example P and analyzed for 6-Amino-9-neopentyl-8-(2-phosphonofuranyl)purine content as described in Example I.
# Results: 6-Amino-9-neopentyl-8-(2-phosphonofuranyl)purine was detected both in plasma and liver following 1.3 administration. Peak levels measured at the earliest time point of 1 hour were 5.8 μM in plasma and 5 nmoles/g tissue in liver. 6-Amino-9-neopentyl-8-(2-phosphonofuranyl)purine persisted in plasma and liver for 4 hours (the last time point measured).
# [2] = Stability in plasma (Example C); conditions: 37° C.; 5-8 hours; HPLC
# Description: Methods: Compounds were incubated in plasma at 37° C., and aliqouts removed at appropriate time points over the course of 5-8 hours. The aliquots were extracted with 1.5 volumes of methanol and clarified by centrifugation. Supernatants were then evaporated to dryness and the residues reconstituted with 100 μL of isoionic saline and then analyzed by reverse phase HPLC.
# [3] = Chemical stability in isotonic saline and phosphate buffer (Example A); type: physicochemical; conditions: 100 μM; phosphate buffer pH 7.4; 1 hour; room temperature
# Description: Methods: Aliquots of a 10 μg/mL solution of 30.1 in isotonic saline and in 100 mM potassium phosphate buffers at pH 3, 7, and 9 were sampled after 1, 2, 5, and 7 days of incubation at room temperature and analyzed by HPLC. A Beckman Ultrasphere C8 column (4.6×150 mm) was employed and eluted with a gradient from 0.1% v/v trifluoroacetic acid to 80% methanol at a flow rate of 1.0 mL/min. Detection was at 254 nm. Using these conditions, the four isomers of 30.1 were readily separated and quantified. 1.3 was incubated at 100 μM in phosphate buffer at pH 7.4 and analyzed by HPLC as described in Example I following 1 hour of incubation at room temperature.
# Thus, prodrugs of the invention are stable under a broad pH range.
# [4] = test system: glucose production (gluconeogenesis) in isolated rat hepatocytes; assay: Inhibition of glucose production in rat hepatocytes (Example J); type: cell-based; conditions: lactate 10 mM / pyruvate 1 mM, 1 hour
# Description: Select prodrugs of FBPase inhibitors were tested for inhibition of glucose production in isolated rat hepatocytes.
# After a 10 minute equilibration period, lactate and pyruvate were added to 10 mM and 1 mM concentrations, respectively. Addition of gluconeogenic substrates was immediately followed by that of appropriate concentrations of test compound. After 1 hour, an aliquot (0.25 ml) was removed, transferred to an Eppendorf tube and centrifuged. The supernatant (50 μl) was then assayed for glucose content using a Glucose Oxidase kit (Sigma Chemical Co.) as per the manufacturer's instructions.
# Results: The following table depicts the inhibitory effect on gluconeogenesis for several prodrugs prepared in the Examples.
# [5] = Oral bioavailability by urinary excretion method (Example M); type: in vivo; conditions: oral gavage 20 or 40 mg/kg parent equivalents; 24 h urine vs i.v. parent ~10 mg/kg; rat
# Description: The oral bioavailability of prodrugs of a variety of phosphonic acid FBPase inhibitors was estimated by a urinary excretion method in rat.
# Prodrugs of FBPase inhibitors were dissolved in 10% ethanol/90% polyethylene glycol (mw 400) and administered by oral gavage at doses of 20 or 40 mg/kg parent compound equivalents to 6-hour fasted, Sprague Dawley rats (220-240 g). The rats were subsequently placed in metabolic cages and urine was collected for 24 hours. The quantity of parent compound excreted into urine was determined by HPLC analysis. An ODS column eluted with a gradient from potassium phosphate buffer, pH 5.5 to acetonitrile was employed for these measurements. Detection was at 310-325 nm. […] Parent compounds were typically dissolved in dimethyl sulfoxide, and administered via the tail vein in animals that were briefly anesthetized with halothane.
# Results for the FBPase inhibitor prodrugs were as follows
# isolated rat hepatocytes [6] = assay: Activation in isolated rat hepatocytes (Example I); conditions: 100 μM prodrug; fed rat hepatocytes
# Description: Methods: Hepatocytes were prepared from fed Sprague-Dawley rats (250-300 g) according to the procedure of Berry and Friend (Berry, M. N., Friend, D. S. J. Cell Biol. 43, 506-520 (1969)) as modified by Groen (Groen, A. K. et al. Eur J. Biochem 122, 87-93 (1982)). Hepatocytes (75 mg wet weight/ml) were incubated in 1 ml Krebs-bicarbonate buffer containing 10 mM glucose, and 1 mg/ml BSA. […] Prodrugs were dissolved in DMSO to yield 10 mM stock solutions, and then diluted into the cell suspension to yield a final concentration of 100 μM. At appropriate time points over the course of one hour, aliquots of the cell suspension were removed and spun through a silicon/mineral oil layer into 10% perchloric acid. The cell extracts in the acid layers were neutralized, and the intracellular prodrug metabolite content analyzed by reverse phase HPLC. An ODS column was used for analysis. It was eluted with a gradient from 10 mM sodium phosphate, pH 5.5 to 75% acetonitrile. Detection was at 310 nm. Peaks on the chromatograms were identified by comparison to the retention times and spectra of standards of prodrug and parent compound.
# [7] = Renal excretion of PMEA after intravenous administration (Example Q); conditions: i.v.; for Renal excretion of PMEA, of the administered dose: rats, 24 hour urine
# Description: Rats were subsequently caged in metabolic cages and urine collected over a 24 hour period. Urine samples were extracted with 70% methanol/2% acetic acid, vortexed and clarified by centrifugation. Supernatants were analyzed for PMEA content by reverse phase HPLC. A Beckman Ultrasphere ODS (4.6×150 mm) column was used with a gradient from 20 mM potassium phosphate pH 6.2 to 50% acetonitrile.
# [8] = Hepatic PMEA-diphosphate and plasma PMEA after intravenous administration (Example P); type: in vivo, rat; conditions: 10 mg/kg PMEA equivalents i.v.; fasted rats
# Description: Methods. […] At appropriate time points, blood and liver samples were obtained and processed as described in Example O. PMEA-diphosphate in liver and PMEA in plasma were analyzed by HPLC as described for araATP and ara-hypoxanthine, respectively, in Example O.
# [9] = test system: human liver microsomes, p450 isozymes (CYP3A4, CYP1A2, CYP2C9); assay: Identification of the p450 isozyme involved in the activation, with isozyme inhibitors (Example F); conditions: 0-100 μM p450 isozyme inhibitor, 250 μM 30.1
# [10] = in vivo; cited from earlier work
# isolated rat hepatocytes [11] = assay: Generation of PMEApp in isolated rat hepatocytes (Example V); type: cell-based; conditions: Dose 250 μM; 4 h; triplicate
# Description: Methods: Hepatocytes were prepared from fed rats and incubated as described in Example I. Test compounds were prepared in DMSO and-diluted to 250 μM in the cell suspensions. Reactions were performed in triplicate. After 4 hours of incubation, aliquots of the suspension were removed and processed as described in Example I. Quantitation of PMEApp was performed by anion exchange HPLC also as described in Example I.
structure (smiles),measurement,setting,value
"CC(C)(C)Cn1c(-c2ccc(P3(=O)OC4CC(O)CC(C4)O3)o2)nc2c(N)ncnc21 (single isomer, unassigned) [Compound 1.3, 6-Amino-8-(5′-hydroxyl-1′,3′ cyclohexyl)phosphonofuranyl-9-neopentyl purine]",peak level of parent 6-Amino-9-neopentyl-8-(2-phosphonofuranyl)purine in liver,"[1]; fasted rats, 1 hour",5 nmoles/g tissue
same,peak level of parent 6-Amino-9-neopentyl-8-(2-phosphonofuranyl)purine in plasma,"[1]; fasted rats, 1 hour",5.8 µM
same,persistence of parent compound in plasma and liver,[1]; last time point measured,4 h
same,metabolism / degradation in fresh rat plasma,[2],no evidence of metabolism
same,stability in phosphate buffer,[3],fully stable
"Nc1ncnc2c1nc(-c1ccc(P3(=O)OC4CC(O)CC(C4)O3)o1)n2CCc1ccccc1 (centres unmarked) [Compound 1.1, 6-Amino-8-(5′-hydroxyl-1′,3′-cyclohexyl)phosphonofuranyl-9-phenethyl purine]",metabolism / degradation in fresh rat plasma,[2],not degraded; also recorded: no evidence of metabolism
"CC(C)(C)Cn1c(-c2ccc(P3(=O)OC4CC(O)CC(C4)O3)o2)nc2c(N)ncnc21 (centres unmarked) [Compound 1.2, 6-Amino-8-(5′-hydroxyl-1′,3′-cyclohexyl)phosphonofuranyl-9-neopentyl purine]",metabolism / degradation in fresh rat plasma,[2],not degraded
"Cc1c(Cl)cc2c(nc(-c3ccc(P4(=O)OC5CC(O)CC(C5)O4)o3)n2CC2CC2)c1C (centres unmarked) [Compound 1.4, 6-Chloro-4,5-dimethyl-1-cyclopropylmethyl-2-[1′-hydroxy-3′,5′-cyclohexylphosphono-5-furanyl]benzimidazole]",% inhibition @ 100 μM,[4],36%
"CC(=O)N[C@@H]1COP(=O)(c2ccc(-c3nc4ccc(Cl)cc4n3CC(C)C)o2)O[C@H]1c1ccc([N+](=O)[O-])cc1 (stereo partly drawn) [Compound 2.4, 6-Chloro-1-isobutyl-2-{5-[1S-(4-nitrophenyl)-2R-acetylamino-propan-1,3-yl]phosphono-2-furanyl}benzimidazole]",% OBAV Prodrug,[5],8.7%
same,% inhibition @ 100 μM,[4],40%
"CC(C)Cn1c(-c2ccc(P3(=O)OCCC(c4ccccn4)O3)o2)nc2ccc(Cl)cc21 (centres unmarked) [Compound 4.2, 6-Chloro-1-isobutyl-2-{5-[1′-(2-pyridyl)-propan-1′,3′-yl]phosphono-2-furanyl}benzimidazole]",% OBAV Prodrug,[5],8.5%
same,% inhibition @ 100 μM,[4],68%
"CC(C)Cn1c(-c2ccc(P3(=O)OCCC(c4ccncc4)O3)o2)nc2ccc(Cl)cc21 (centres unmarked) [Compound 4.3, 6-Chloro-1-isobutyl-2-{5-[1′-(4-pyridyl)-propan-1′,3′-yl]phosphono-2-furanyl}benzimidazole]",% OBAV Prodrug,[5],11.6%
same,% inhibition @ 100 μM,[4],55%
"CC(C)Cn1c(-c2ccc(P3(=O)OCCC(c4ccc(F)cc4)O3)o2)nc2ccc(Cl)cc21 (centres unmarked) [Compound 5.2, 6-Chloro-1-isobutyl-2-{5-[1′-(4-fluorophenyl)-propan-1′,3′-yl]phosphono-2-furanyl}benzimidazole]",% OBAV Prodrug,[5],2.4%
"COc1ccc(C2CCOP(=O)(c3ccc(-c4nc5ccc(Cl)cc5n4CC(C)C)o3)O2)cc1Br (centres unmarked) [Compound 6.1, 6-Chloro-1-isobutyl-2-{5-[1′-(3-bromo-4-methoxyphenyl)-propan-1′,3′-yl]phosphono-2-furanyl}benzimidazole]",% inhibition @ 100 μM,[4],11%
"CC(=O)OCC1COP(=O)(c2ccc(-c3nc4ccc(Cl)cc4n3CC(C)C)o2)OC1 (centres unmarked) [Compound 7.2, 6-Chloro-1-isobutyl-2-{5-[2′-(acetoxymethyl)-propan-1′,3′-yl]phosphono-2-furanyl}benzimidazole]",% OBAV Prodrug,[5],12.5%
same,peak intrahepatocyte levels of parent compound,isolated rat hepatocytes [6],~500 nmoles/g cells
same,IC50,[4],90 µM
"COC(=O)OCC1COP(=O)(c2ccc(-c3nc4ccc(Cl)cc4n3CC(C)C)o2)OC1 (centres unmarked) [Compound 7.3, 6-Chloro-1-isobutyl-2-{5-[2′-(methoxycarbonytoxymethyl)-propan-1′,3′-yl]phosphono-2-furanyl}benzimidazole]",% OBAV Prodrug,[5],14.1%
same,% inhibition @ 100 μM,[4],61%
"CCc1cc(F)c(N)c2nc(-c3ccc(P4(=O)OCC(COC(C)=O)CO4)o3)n(CC(C)C)c12 (centres unmarked) [Compound 7.4, 4-Amino-5-fluoro-7-ethyl-1-isobutyl-2-{5-[2′-(acetoxymethyl)-propan-1′,3′-yl]phosphono-2-furanyl}benzimidazole]",IC50,[4],25 µM
"Nc1ncnc2c1ncn2CCOCP1(=O)OCCC(c2ccncc2)O1 (centres unmarked) [Compound 28.4, 9-[2-(1-(4-Pyridyl)-1,3-propylphosphonomethoxy)ethyl]adenine]",PMEA in the blood or urine,[7],no detectable PMEA
same,PMEA-diphosphate levels in liver,[8],readily detectable levels; also recorded: high PMEA disphosphate levels
CC(=O)N1CCN(c2ccc(OCC3COC(Cn4ccnc4)(c4ccc(Cl)cc4Cl)O3)cc2)CC1 (centres unmarked) [Ketoconazole],inhibition of the formation of ara-AMP from 30.1,[9],dose-dependent
"Nc1ncnc2c1ncn2[C@@H]1O[C@H](CO)[C@@H](O)[C@@H]1O [araA, 9-b-D-arabinofuranosyladenine]",oral bioavailability,[10],low oral bioavailability
"CC(C)(C)C(=O)OCOP(=O)(COCCn1cnc2c(N)ncnc21)OCOC(=O)C(C)(C)C [bisPOM-PMEA, reference compound]",PMEApp,isolated rat hepatocytes [11],200 ± 33 nmol/g
same,"Renal excretion of PMEA, of the administered dose",[7],54%
same,"Renal excretion of PMEA, of the administered dose",[7]; listed as bis POM prodrug of PMEA,high levels of PMEA in the urine
same,PMEA-diphosphate levels in liver,[8],readily detectable levels
Cc1nc2c([nH]1)c(=O)n(C)c(=O)n2Cc1ccco1 [furafylline],inhibition of the formation of ara-AMP from 30.1,[9],no significant inhibition
Nc1ccc(S(=O)(=O)Nc2ccnn2-c2ccccc2)cc1 [sulfaphenazole],inhibition of the formation of ara-AMP from 30.1,[9],no significant inhibition

# Reference: patent US7351399B2, “Prodrugs for phosphorus-containing compounds” (Metabasis Therapeutics, Inc., priority 1998, dated 2008)
